According to patent US20020198160A1, “Compositions and methods for enhancing the bioavailability of pharmaceutical agents” (priority 2001, published 2002):
Where two headings read alike, the source gives them in different places. Each block holds one molecule with its values, some of them ahead of it.

How the values were obtained:
[1] = tested on: HCT15 cells (which express P-glycoprotein); assay: Efflux of radiolabelled lopinavir, ritonavir and paclitaxel from HCT15 cells; assay type: cell-based; conditions: 1 μM loaded for 1 hour, FIG. 1
Method: The medium was aspirated and the cells were washed with PBS (phosphate buffered saline, available from Life Technologies, Rockvile, Md.). At harvest, the cells were washed once with PBS and the pellets were dissolved in 550 μl of 1N NaOH. The total protein was determined by Bio-Rad assay (available from Bio-Rad of Hercules, Ca.) and the total radioactivity was determined by LSC. Following normalization of the protein amount, cpm/μg protein for each time point was compared to the peak drug time 0.

[2] = target: T1, P-glycoprotein (Homo sapiens, UniProt P08183)
T1 sequence (P08183 whole entry): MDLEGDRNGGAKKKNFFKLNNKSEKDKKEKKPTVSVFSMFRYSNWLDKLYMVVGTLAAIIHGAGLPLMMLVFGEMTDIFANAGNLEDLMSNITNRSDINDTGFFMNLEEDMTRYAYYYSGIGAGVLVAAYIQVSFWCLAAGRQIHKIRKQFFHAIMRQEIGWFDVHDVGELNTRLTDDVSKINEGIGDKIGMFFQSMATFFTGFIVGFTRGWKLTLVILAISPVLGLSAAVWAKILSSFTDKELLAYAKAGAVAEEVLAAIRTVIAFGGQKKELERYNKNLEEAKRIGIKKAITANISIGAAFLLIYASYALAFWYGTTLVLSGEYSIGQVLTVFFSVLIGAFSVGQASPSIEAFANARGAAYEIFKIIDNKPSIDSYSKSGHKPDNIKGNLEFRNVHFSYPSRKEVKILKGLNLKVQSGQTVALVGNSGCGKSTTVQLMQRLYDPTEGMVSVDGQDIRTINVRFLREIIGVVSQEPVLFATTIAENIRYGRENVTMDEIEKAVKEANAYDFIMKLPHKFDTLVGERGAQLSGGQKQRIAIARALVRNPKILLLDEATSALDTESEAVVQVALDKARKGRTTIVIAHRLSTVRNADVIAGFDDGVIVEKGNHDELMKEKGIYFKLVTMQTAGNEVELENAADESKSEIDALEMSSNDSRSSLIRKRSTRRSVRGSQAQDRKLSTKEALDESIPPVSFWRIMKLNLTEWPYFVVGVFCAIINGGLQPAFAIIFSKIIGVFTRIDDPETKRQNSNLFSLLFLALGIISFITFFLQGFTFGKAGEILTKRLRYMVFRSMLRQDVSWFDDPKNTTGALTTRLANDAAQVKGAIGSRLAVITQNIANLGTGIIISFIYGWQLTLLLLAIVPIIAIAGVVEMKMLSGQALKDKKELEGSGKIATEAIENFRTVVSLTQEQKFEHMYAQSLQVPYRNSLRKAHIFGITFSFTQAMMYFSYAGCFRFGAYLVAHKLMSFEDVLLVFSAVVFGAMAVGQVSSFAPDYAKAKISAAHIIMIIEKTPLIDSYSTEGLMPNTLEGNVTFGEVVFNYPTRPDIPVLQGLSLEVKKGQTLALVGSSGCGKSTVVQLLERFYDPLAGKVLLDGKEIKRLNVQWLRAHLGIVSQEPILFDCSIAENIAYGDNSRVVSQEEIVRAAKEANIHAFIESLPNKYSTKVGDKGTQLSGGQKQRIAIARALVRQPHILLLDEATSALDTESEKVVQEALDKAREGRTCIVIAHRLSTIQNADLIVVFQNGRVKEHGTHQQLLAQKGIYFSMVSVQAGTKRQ
Method: (§1) The cells were grown and maintained in DMEM (Dulbecco's modified eagle's medium, purchased from Gibco/BRL, Grand Island, N.Y.) supplemented with 10% fetal bovine serum and 2 mM L-glutamine.
(§2) Cell cultures were maintained, antibiotic free, in a 37° C. incubator with 90% relative humidity in an atmosphere of 5% CO2. The cells were maintained in 10 cm^2 stock plates and seeded onto polycarbonate Transwell™ HTS filter inserts at 4×10^5 cells/mL. The cells were cultured on the filters for about 27-30 days. Caco-2 cells having passages between 40 and 110 were used for the studies.
(§3) The integrity of the cell monolayers was determined by measuring the paracellular transepithelial transport of the integrity marker, Lucifer yellow, which is commercially available from Sigma Chemical of St. Louis, Mo.
(§4) Stock concentrations (C0) of each of the P-glycoprotein inhibitors were treated similarly as dosed cells and were retained and sampled for starting dose. Aliquots for both the AP and the BL sides of the cell monolayers were taken at 2 hours, and such aliquots were analyzed by LSC Calculation of the apparent permeability by using the Artusson equation shown above. For the triplicate wells the P(app) is the mean of the three individual P(app) values for each well.

[3] = tested on: H460/T800 cells (which over express P-glycoprotein); assay: Reduction of the IC50 of paclitaxel in paclitaxel resistant H460/T800 cells on adding lopinavir; assay type: cell-based
[4] = tested on: HCT15 cells (which express P-glycoprotein); assay: Decrease of the IC50 of paclitaxel in HCT15 cells on adding a P-glycoprotein inhibitor; assay type: cell-based; conditions: lopinavir 5 μM added to paclitaxel
[5] = target: T1, P-glycoprotein; assay: in vitro; conditions: Caco-2, pH 7.4
Method: as §1, §2, §3, §4

[6] = target: T1, P-glycoprotein; assay: in vitro; conditions: Caco-2
Method: as §1, §2, §3
(§5) The transport of vinblastine, which is the pharmaceutically active agent in these studies, was allowed to proceed for 120 minutes at 37° C. Stock concentrations (C0) of each of the P-glycoprotein inhibitors were treated similarly as dosed cells and were retained and sampled for starting dose. Aliquots for both the AP and the BL sides of the cell monolayers were taken at 2 hours, and such aliquots were analyzed by liquid scintillation counting (LSC) using a Packard Liquid Scintillation Counting machine. Calculation of the apparent permeability was done by using the following Artusson equation: [formula]
(§6) where dQ/dT is the flux rate (μg/sec), C0 is concentration of the starting material at t=0 (μg/mL), and A=the area of the monolayer (cm^2). For the triplicate wells the P(app) is the mean of the three individual P(app) values for each well.

[7] = target: T1, P-glycoprotein; assay: Vinblastine transepithelial bi-directional transport across Caco-2 cell monolayers with or without P-glycoprotein inhibitors; conditions: Run 2, vinblastine 5 μM, inhibitor 10 μM
Method: as §1, §2, §3, §5, §6

[8] = Table 2B (printed Run 1), Caco-2, lopinavir or ritonavir 5 μM, CyA 10 μM, 120 minutes at 37° C., mean ± SD of triplicate wells
[9] = 120 minutes at 37° C., mean ± SD of triplicate wells

SMILES: CC(C)c1nc(CN(C)C(=O)N[C@H](C(=O)N[C@@H](Cc2ccccc2)C[C@H](O)[C@H](Cc2ccccc2)NC(=O)OCc2cncs2)C(C)C)cs1 (relative stereo) [Ritonavir, [5S-(5R*,8R*,10R*,11R*)]-10-hydroxy-2-methyl-5-(1-methylethyl)-1-[2-(1-methylethyl)-4-thiazolyl]-3,6-dioxo-8,11-bis(phenylmethyl)-2,4,7,12-tetraazatridecan-13-oic acid, 5-thiazolylmethyl ester]
elimination (efflux) by the HCT15 cells ([1]; in 15 minutes): rapidly eliminated

substrate for P-glycoprotein (conclusion from Tables 2A and 2B) ([2]; Caco-2 bi-directional permeability with or without cyclosporin A): not a substrate for P-glycoprotein | P(app) AP-BL [2, 8]: 18.72 ± 1.04 1 × 10(−6) cm/sec | P(app) BL-AP [2, 8]: 17.42 ± 4.37 1 × 10(−6) cm/sec | reduction of the IC50 of paclitaxel ([3]; lopinavir 5 μM with paclitaxel): 11 fold | reduction of the IC50 of paclitaxel ([3]; lopinavir 10 μM with paclitaxel): 21 fold | decrease in the IC50 of paclitaxel [4]: 9 fold | Papp A→B at 120 min, 5 μM [5]: 10.7 ± 0.58 ×10⁻⁶ cm/s | Papp B→A at 120 min, 5 μM [5]: 9.55 ± 2.1 ×10⁻⁶ cm/s
SMILES: Cc1cccc(C)c1OCC(=O)N[C@@H](Cc1ccccc1)[C@@H](O)C[C@H](Cc1ccccc1)NC(=O)[C@H](C(C)C)N1CCCNC1=O (relative stereo) [Lopinavir, [1S-[1R*,(R*),3R*,4R*]]-N-[4-[[(2,6-dimethylphenoxy)acetyl]amino]-3-hydroxy-5-phenyl-1-(phenylmethyl)pentyl]tetrahydro-alpha-(1-methylethyl)-2-oxo-(2H)-pyrimidine acetamide]
compound remained in the HCT15 cells ([1]; after 60 minutes): approximately 80%

Papp A→B at 120 min, 5 μM [6]: 0.91 ± 0.07 ×10⁻⁶ cm/s | Papp B→A at 120 min, 5 μM [6]: 17.7 ± 0.39 ×10⁻⁶ cm/s | efflux ratio at 120 min, 5 μM [6]: 19.5 | Ratio (BL-AP/AP-BL) [7]: 30.02 | P(app) AP-BL [7, 9]: 0.49 ± 0.00 1 × 10(−6) cm/sec | P(app) BL-AP [7, 9]: 14.71 ± 3.33 1 × 10(−6) cm/sec
SMILES: CC[C@]1(O)C[C@@H]2CN(CCc3c([nH]c4ccccc34)[C@@](C(=O)OC)(c3cc4c(cc3OC)N(C)[C@H]3[C@@](O)(C(=O)OC)[C@H](OC(C)=O)[C@]5(CC)C=CCN6CC[C@]43[C@@H]65)C2)C1 [Vinblastine, vinblastine]
